Experimental data taken from patent US9833497B2, “Human originated EGF domain proteins and use of the same” (CHENGDU SOURCEBIO LIMITED-LIABILITY COMPANY, priority 2013, dated 2017).

How the values were obtained:
Assay type in all cases: cell-based
Pseudomonas aeruginosa = experiment: MIC against Gram-negative bacteria: Pseudomonas aeruginosa; settings: for MIC: P. aeruginosa
In short: (§1)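 Two-fold serial dilutions of each purified human EGF domain protein, three replicate wells per level, were combined with bacteria at a final 5×10^5 CFU/mL in LB. Cultures were shaken at 175 rpm, 37° C. The MIC was taken as the minimum concentration preventing growth.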

Citrobacter diversus = experiment: MIC against Gram-negative bacteria: Citrobacter diversus; settings: for MIC: C. diversus
In short: as §1

Klebsiella pneumonia = experiment: MIC against Gram-negative bacteria: Klebsiella pneumonia; settings: for MIC: K. pneumonia
In short: as §1

Moraxella catarrhalis = experiment: MIC against Gram-negative bacteria: Moraxella catarrhalis; settings: for MIC: M. catarrhalis
In short: as §1

Serratia marcescens = experiment: MIC against Gram-negative bacteria: Serratia marcescens; settings: for MIC: S. marcescens
In short: as §1

E. coli BL21 = experiment: MIC against Gram-negative bacteria: E. coli BL21
In short: as §1

Proteus vulgaris = experiment: MIC against Gram-negative bacteria: Proteus vulgaris; settings: for MIC: P. vulgaris
In short: as §1

Enterobacter cloacae = experiment: MIC against Gram-negative bacteria: Enterobacter cloacae; settings: for MIC: E. cloacae
In short: as §1

Proteus mirabilis = experiment: MIC against Gram-negative bacteria: Proteus mirabilis; settings: for MIC: P. mirabilis
In short: as §1

Aeromonas hydrophila = experiment: MIC against Gram-negative bacteria: Aeromonas hydrophila; settings: for MIC: A. hydrophila
In short: as §1

E. coli DH5α = experiment: Antibacterial activity: MIC and growth curve against E. coli DH5α in 96-well plate; settings: minimal inhibitory concentration against E. coli DH5α; 96-well plate, 5×10^5 CFU/mL, 37° C., judged after 8 h
In short: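 MIC taken as lowest protein level with no bacterial growth, tracked by A600 every 30 min during 37 °C, 175 rpm culture. Two-fold protein series 50-12.5 μg/mL final, triplicate wells, against 5×10^5 CFU/mL of LB-washed mid-log cells.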

[1] = E. coli BL21, 10 h cultivation at 37° C.
[2] = 10 h cultivation at 37° C., 5×10^5 CFU/mL, two-fold serial dilution
[3] = 96-well plate, 5×10^5 CFU/mL, 37° C., 10 h

Substance: PRT977 (EVDPCLAQPCQHGGTCRGYMGGYMCECLPGYNGDNCE; listed as Homo sapiens)
- MIC (Pseudomonas aeruginosa; 10 h cultivation at 37° C.): 12.5 µg/mL
- MIC (Citrobacter diversus; 10 h cultivation at 37° C.): 50 µg/mL
- MIC (Klebsiella pneumonia; 10 h cultivation at 37° C.): 50 µg/mL
- MIC (Moraxella catarrhalis; 10 h cultivation at 37° C.): 25 µg/mL
- MIC (Serratia marcescens; 10 h cultivation at 37° C.): 25 µg/mL
- MIC (E. coli BL21; [1]): 50 µg/mL
- MIC (Proteus vulgaris; 10 h cultivation at 37° C.): 50 µg/mL
- MIC (Enterobacter cloacae; 10 h cultivation at 37° C.): 12.5 µg/mL
- MIC (Proteus mirabilis; 10 h cultivation at 37° C.): 12.5 µg/mL
- MIC (Aeromonas hydrophila; 10 h cultivation at 37° C.): 25 µg/mL
- MIC (E. coli DH5α): 12.5 µg/mL

Substance: PRT1147 (ELDACSFKPCKNNGSCINKRENWDEQAYECVCHPPFTGKNCS; listed as Homo sapiens)
- MIC P. aeruginosa (Pseudomonas aeruginosa; [2]): 50 µg/mL
- MIC C. diversus (Citrobacter diversus; [2]): 25 µg/mL
- MIC K. pneumonia (Klebsiella pneumonia; [2]): 12.5 µg/mL
- MIC M. catarrhalis (Moraxella catarrhalis; [2]): 12.5 µg/mL
- MIC S. marcescens (Serratia marcescens; [2]): 25 µg/mL
- MIC E. coli BL21 (E. coli BL21; [2]): 12.5 µg/mL
- MIC P. vulgaris (Proteus vulgaris; [2]): 50 µg/mL
- MIC E. cloacae (Enterobacter cloacae; [2]): 50 µg/mL
- MIC P. mirabilis (Proteus mirabilis; [2]): 25 µg/mL
- MIC A. hydrophila (Aeromonas hydrophila; [2]): 25 µg/mL
- MIC (E. coli DH5α): 50 µg/mL

Substance: PRT1376 (ATRMCPADCRGRGRCVQGVCLCHVGYGGEDCG; listed as Homo sapiens)
- MIC against P. aeruginosa (Pseudomonas aeruginosa; Pseudomonas aeruginosa, 5×10^5 CFU/mL, 10 h cultivation at 37° C.): 50 µg/mL
- MIC against C. diversus (Citrobacter diversus; Citrobacter diversus, 5×10^5 CFU/mL, 10 h cultivation at 37° C.): 50 µg/mL
- MIC against K. pneumonia (Klebsiella pneumonia; Klebsiella pneumonia, 5×10^5 CFU/mL, 10 h cultivation at 37° C.): 12.5 µg/mL
- MIC against M. catarrhalis (Moraxella catarrhalis; Moraxella catarrhalis, 5×10^5 CFU/mL, 10 h cultivation at 37° C.): 12.5 µg/mL
- MIC against S. marcescens (Serratia marcescens; Serratia marcescens, 5×10^5 CFU/mL, 10 h cultivation at 37° C.): 25 µg/mL
- MIC against E. coli BL21 (E. coli BL21; E. coli BL21, 5×10^5 CFU/mL, 10 h cultivation at 37° C.): 12.5 µg/mL
- MIC against P. vulgaris (Proteus vulgaris; Proteus vulgaris, 5×10^5 CFU/mL, 10 h cultivation at 37° C.): 12.5 µg/mL
- MIC against E. cloacae (Enterobacter cloacae; Enterobacter cloacae, 5×10^5 CFU/mL, 10 h cultivation at 37° C.): 50 µg/mL
- MIC against P. mirabilis (Proteus mirabilis; Proteus mirabilis, 5×10^5 CFU/mL, 10 h cultivation at 37° C.): 50 µg/mL
- MIC against A. hydrophila (Aeromonas hydrophila; Aeromonas hydrophila, 5×10^5 CFU/mL, 10 h cultivation at 37° C.): 12.5 µg/mL
- MIC (E. coli DH5α): 50 µg/mL

Substance: PRT904 (NTPDCTESSCFNGGTCVDGINSFTCLCPPGFTGSYCQ; listed as Homo sapiens)
- MIC (Pseudomonas aeruginosa; 10 h cultivation at 37° C.): 25 µg/mL
- MIC (Citrobacter diversus; 10 h cultivation at 37° C.): 12.5 µg/mL
- MIC (Klebsiella pneumonia; 10 h cultivation at 37° C.): 12.5 µg/mL
- MIC (Moraxella catarrhalis; 10 h cultivation at 37° C.): 25 µg/mL
- MIC (Serratia marcescens; 10 h cultivation at 37° C.): 25 µg/mL
- MIC (E. coli BL21; [1]): 12.5 µg/mL
- MIC (Proteus vulgaris; 10 h cultivation at 37° C.): 25 µg/mL
- MIC (Enterobacter cloacae; 10 h cultivation at 37° C.): 12.5 µg/mL
- MIC (Proteus mirabilis; 10 h cultivation at 37° C.): 12.5 µg/mL
- MIC (Aeromonas hydrophila; 10 h cultivation at 37° C.): 25 µg/mL
- MIC (E. coli DH5α): 50 µg/mL

Substance: PRT1085 (HARKCNETAKSYCVNGGVCYYIEGINQLSCKCPNGFFGQRCL; listed as Homo sapiens)
- MIC P. aeruginosa (Pseudomonas aeruginosa; [2]): 12.5 µg/mL
- MIC C. diversus (Citrobacter diversus; [2]): 12.5 µg/mL
- MIC K. pneumonia (Klebsiella pneumonia; [2]): 50 µg/mL
- MIC M. catarrhalis (Moraxella catarrhalis; [2]): 50 µg/mL
- MIC S. marcescens (Serratia marcescens; [2]): 25 µg/mL
- MIC E. coli BL21 (E. coli BL21; [2]): 12.5 µg/mL
- MIC P. vulgaris (Proteus vulgaris; [2]): 50 µg/mL
- MIC E. cloacae (Enterobacter cloacae; [2]): 12.5 µg/mL
- MIC P. mirabilis (Proteus mirabilis; [2]): 12.5 µg/mL
- MIC A. hydrophila (Aeromonas hydrophila; [2]): 50 µg/mL
- MIC (E. coli DH5α): 25 µg/mL

Substance: PRT618 (CDCDPAGIAGPCDAGRCVCKPAVTGERCDRCRSGYYNLDGGNPEGCTQ; listed as Homo sapiens)
- MIC P. aeruginosa (Pseudomonas aeruginosa; [3]): 12.5 µg/mL
- MIC C. diversus (Citrobacter diversus; [3]): 12.5 µg/mL
- MIC K. pneumonia (Klebsiella pneumonia; [3]): 50 µg/mL
- MIC M. catarrhalis (Moraxella catarrhalis; [3]): 50 µg/mL
- MIC S. marcescens (Serratia marcescens; [3]): 25 µg/mL
- MIC E. coli BL21 (E. coli BL21; [3]): 25 µg/mL
- MIC P. vulgaris (Proteus vulgaris; [3]): 50 µg/mL
- MIC E. cloacae (Enterobacter cloacae; [3]): 12.5 µg/mL
- MIC P. mirabilis (Proteus mirabilis; [3]): 12.5 µg/mL
- MIC A. hydrophila (Aeromonas hydrophila; [3]): 50 µg/mL
- MIC (E. coli DH5α): 50 µg/mL

Substance: PRT1115 (PTLPCEANPCLNGGTCRAAGGVSECICNARFSGQFCE; listed as Homo sapiens)
- MIC P. aeruginosa (Pseudomonas aeruginosa; [2]): 12.5 µg/mL
- MIC C. diversus (Citrobacter diversus; [2]): 12.5 µg/mL
- MIC K. pneumonia (Klebsiella pneumonia; [2]): 50 µg/mL
- MIC M. catarrhalis (Moraxella catarrhalis; [2]): 12.5 µg/mL
- MIC S. marcescens (Serratia marcescens; [2]): 12.5 µg/mL
- MIC E. coli BL21 (E. coli BL21; [2]): 25 µg/mL
- MIC P. vulgaris (Proteus vulgaris; [2]): 12.5 µg/mL
- MIC E. cloacae (Enterobacter cloacae; [2]): 12.5 µg/mL
- MIC P. mirabilis (Proteus mirabilis; [2]): 12.5 µg/mL
- MIC A. hydrophila (Aeromonas hydrophila; [2]): 12.5 µg/mL
- MIC (E. coli DH5α): 50 µg/mL
